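Dose response: 5 concentrations. Exposure: 48 h. Format: 96-well plates. Endpoint: linear interpolation; highest concentration if not reached. GI50: concentration for 50% inhibition of growth. At the TGI there is no net growth.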

Test in all cases: NCI tumour cell line growth inhibition, 48 h
For experiment [1], the system named is DLD-1 colon.
In experiment [2] the test system is LXFL 529 NSCLC.
In experiment [3] the test system is M19-MEL melanoma.
In experiment [4] the test system is SNB-78 CNS.
Experiment [5] deals with XF 498 CNS.
Experiment [6] concerns 786-0 renal.
The test system of experiment [7] is BT-549 breast.
In experiment [8] the test system is HS 578T breast.
The subject of experiment [9] is MCF7 breast.
For experiment [10], the system named is MDA-MB-231 breast.
The subject of experiment [11] is MDA-N.
The test system of experiment [12] is PC-3 prostate.
Experiment [13] relates to P388 leukemia.
Experiment [14] deals with P388/ADR leukemia.
The test system of experiment [15] is SN12K1 renal.

Consider `C=C1C(=O)OC2/C=C(\C(=O)O)CC/C=C(\C)CC(OC(=O)/C=C(\C)CC)C12` (stereo not drawn), for which the TGI in experiment [1] was 43.6 µM; in [2] it was 31.6 µM; in experiment [3], 29.1 µM; in experiment [4] it was 61 µM; in experiment [5] it was 32.5 µM.

Regarding `O=C(c1ccccc1)c1ccc2n[se]nc2c1`, the TGI in experiment [1], in [2] and in [4] was greater than 100 µM each time.

Take `CC(=O)C(C(c1ccccc1)N1CCOCC1)N1CCOCC1` (stereo not drawn): the TGI in experiment [6], in [7], in experiment [8], in [9], in experiment [10] and in experiment [11] was greater than 100 µM throughout. The same molecule yielded a TGI in [12] greater than 100 µM.

On to `CCOP(=Nc1ccc(N(C)C)cc1)(OCC)OCC`, for which the TGI in experiment [7], in experiment [8], in [9], in [10], in [11] and in experiment [12] was greater than 100 µM throughout.

With `CCCC(C)c1ccc(OCCCCCCN2CCNCC2)cc1` (stereo not drawn), the GI50 in experiment [7] was 3.08 µM; in [8] it was 1.87 µM; in experiment [10] it was 1.75 µM; in experiment [12], 2.02 µM. Moreover, the TGI amounted to 12.4 µM in [7], 4.74 µM in experiment [8], 3.58 µM in [10] and 4.94 µM in [12].

As for `CCC1C[N+]23CCc4c([nH]c5ccccc45)C2CC1CC3` (stereo not drawn), the TGI in experiment [1], in experiment [2], in experiment [3] and in experiment [5] was greater than 100 µM each time.

Regarding `CC1=C2C(O)C(C(C)C(=O)N(C)C)CCC2(C)C=CC1=O` (stereo not drawn), the TGI in [1], in experiment [3], in experiment [9], in experiment [13], in [14] and in [15] was greater than 100 µM each time. Also, the TGI in experiment [4] and in experiment [5] was greater than 100 µM in each case.

With `Cc1ccc(S(=O)(=O)Nc2cccc3c(=O)[nH]cnc23)cc1`, the TGI in experiment [6], in experiment [2], in [3], in experiment [4] and in experiment [5] was greater than 100 µM in each case.

Consider `O=C1C=C(C2OC(CO)C(O)C2O)C(=O)N1` (stereo not drawn), for which the TGI is greater than 100 µM in experiment [1]; greater than 100 µM in experiment [3]; greater than 100 µM in experiment [9]; 60.9 µM in [13]; 68.5 µM in [14]; greater than 100 µM in experiment [15]. The same molecule showed a TGI in experiment [4] greater than 100 µM.

These data come from PubChem BioAssay (NCI).
